Measured values: PMC9090415, “Discovery of small molecule inhibitors of Plasmodium falciparum apicoplast DNA polymerase” (Journal of Enzyme Inhibition and Medicinal Chemistry, 2022)

Target: P. falciparum apicoplast DNA polymerase (Pf-apPOL) (Plasmodium falciparum, UniProt Q8ILY1)
Test: Fluorescence-based high-throughput DNA polymerase assay (molecular beacon), primary screen and dose-response;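 as to % inhibition Apol 40': compound concentration given in µM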
Format: biochemical
Settings: for DNA Pol: 90 min, 10 µM
Procedure, shortened: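 Single-point screening used 10 µM compound with 20 nM polymerase, 20 nM hairpin substrate and 6 µM dNTPs for 90 min at 25 °C. Confirmatory titrations (2.5–80 µM) followed fluorescence at three times, and IC50 was derived from a fit including a cooperativity term n.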

Sequence of P. falciparum apicoplast DNA polymerase (Pf-apPOL) (Q8ILY1 entry or part of it): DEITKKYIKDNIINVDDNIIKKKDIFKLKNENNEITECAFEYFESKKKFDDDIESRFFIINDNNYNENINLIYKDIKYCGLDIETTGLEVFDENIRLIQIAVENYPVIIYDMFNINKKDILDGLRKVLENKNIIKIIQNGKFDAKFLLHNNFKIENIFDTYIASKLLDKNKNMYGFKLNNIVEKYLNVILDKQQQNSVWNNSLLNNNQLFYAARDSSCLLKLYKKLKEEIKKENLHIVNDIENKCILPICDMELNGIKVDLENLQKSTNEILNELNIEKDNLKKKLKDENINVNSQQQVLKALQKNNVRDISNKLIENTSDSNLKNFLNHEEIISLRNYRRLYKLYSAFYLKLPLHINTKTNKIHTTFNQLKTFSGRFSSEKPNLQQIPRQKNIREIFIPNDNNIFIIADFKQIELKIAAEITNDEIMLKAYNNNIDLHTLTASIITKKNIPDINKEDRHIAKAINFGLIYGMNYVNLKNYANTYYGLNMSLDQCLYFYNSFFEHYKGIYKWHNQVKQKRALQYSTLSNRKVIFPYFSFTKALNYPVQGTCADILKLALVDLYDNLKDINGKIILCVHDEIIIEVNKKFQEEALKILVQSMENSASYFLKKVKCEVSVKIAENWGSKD

## Cc1ccc(NC(=O)Cn2ccc3c(=O)[nH]ccc32)c(C)c1 [KU0205125]
'DNA Pol' of the 186 hits list (screen value)
  DNA Pol: 21
DRC-1, conc 2.5
  % inhibition Apo pol 10': 10.1191%
  % inhibition Apol 90': 1.128%
  % inhibition apPOL 180': -4.92%
DRC-1, conc 5
  % inhibition Apo pol 10': 18.1282%
  % inhibition Apol 90': 2.856%
  % inhibition apPOL 180': -5.3418%
DRC-1, conc 10
  % inhibition Apo pol 10': 33.277%
  % inhibition Apol 90': 16.2688%
  % inhibition apPOL 180': 4.52%
DRC-1, conc 20
  % inhibition Apo pol 10': 57.4285%
  % inhibition Apol 90': 36.6738%
  % inhibition apPOL 180': 18.6019%
DRC-1, conc 40
  % inhibition Apo pol 10': 86.5673%
  % inhibition Apol 90': 74.6586%
  % inhibition apPOL 180': 59.9504%
DRC-1, conc 80
  % inhibition Apo pol 10': 93.6236%
  % inhibition Apol 90': 93.7132%
  % inhibition apPOL 180': 92.9849%
DRC-2, conc 2.5
  % inhibition Apo pol 5': -2.19%
  % inhibition Apol 40': -3.78%
  % inhibition ApPOL 90': -5%
  % inhibition apPOL 180': -10%
DRC-2, conc 5
  % inhibition Apo pol 5': 1.9%
  % inhibition Apol 40': -0.571%
  % inhibition ApPOL 90': -4%
  % inhibition apPOL 180': -11%
DRC-2, conc 10
  % inhibition Apo pol 5': 23%
  % inhibition Apol 40': 20%
  % inhibition ApPOL 90': 15%
  % inhibition apPOL 180': 3%
DRC-2, conc 20
  % inhibition Apo pol 5': 44%
  % inhibition Apol 40': 48%
  % inhibition ApPOL 90': 44%
  % inhibition apPOL 180': 30%
DRC-2, conc 40
  % inhibition Apo pol 5': 52%
  % inhibition Apol 40': 70%
  % inhibition ApPOL 90': 71%
  % inhibition apPOL 180': 69%
DRC-2, conc 80
  % inhibition Apo pol 5': 50%
  % inhibition Apol 40': 73%
  % inhibition ApPOL 90': 78%
  % inhibition apPOL 180': 82%
DRC-2, concentration 20
  % inhibition Apo pol 5': 44%
  % inhibition ApPOL 90': 44%
Primary screen value, "DNA Pol"
  DNA Pol: 21
